From publication PMC12684298, “The Parkinson's Disease Drug Tolcapone and Analogues are Potent Glycomimetic Lectin Inhibitors of Pseudomonas aeruginosa LecA” (Angewandte Chemie (International Ed. in English), 2025)

Legend:
LecA [1] = target: T1, LecA (Pseudomonas aeruginosa, UniProt Q05097); experiment: biochemical; format: binding
T1 construct: made in house; host or cells: E. coli BL21 (DE3), plasmid pET25pa11
Procedure: Therefore, we focused our attention on commercially available nitro‐catechols. Prominent derivatives are inhibitors of the enzyme catechol‐O‐methyltransferase (COMT) and approved drugs for the treatment of Parkinson's disease. Four commercial COMT inhibitors were thus evaluated in a previously reported competitive binding assay based on fluorescence polarisation (FP, Table 1, Figure 1).^[ [32] ^]
The competitive binding assay was performed in analogy to Joachim et al.^[2] 10 µL of a solution containing LecA (40 µM) and sulfo-Cy5-Gal (20 nM, synthesis described in Kuhaudomlarp, Siebs et al.^[5]) in TBS/Ca buffer (20 mM Tris, 147 mM NaCl, 2.6 mM KCl at pH 7.4 supplemented with 1 mM CaCl2) were distributed in into wells of a black 384-well microtiter plate (Greiner Bio-One, Germany, cat no 781900). Then, 10 µL of serial dilutions of compounds (3 mM to 1.5 µM, dilution factor 0.5) in TBS/Ca with 40% DMSO were added in technical triplicates. Final concentrations after mixing were the following: 1.5 mM – 0.73 µM compound, 20 µM LecA, 10 nM sulfo-Cy5-Gal and 20% DMSO. The plate was sealed (EASYseal, Greiner Bio-One, cat no 676001), briefly centrifuged and incubated at room temperature in the dark under shaking conditions. Fluorescence intensity was measured after 1 h and 4 h using a PheraStar FS plate reader (BMG Labtech GmbH, Germany) with spectral filters for excitation at 590 nm and emission at 675 nm and polarization was calculated after blank values of 20 µM LecA in TBS/Ca buffer with 20% DMSO were subtracted from the test compounds. The data were analysed using the four-parameter variable slope model of the MARS Data Analysis software. The top and bottom plateau were assigned based on the control compound methyl α-d-galactoside and the data was reanalysed with these fixed values. If not mentioned otherwise, the experiment was repeated at least three times for each compound and the average and standard deviation are given. In case Triton X-100 was used it was added to the TBS/Ca buffer before the assay.

LecA [2] = target: T1, LecA; experiment: Library screening using the FP competitive binding assay (three concentrations)
Excerpt: Next, we screened a library of catechols from F. Hoffmann‐La Roche, the developer of Tolcapone, in the competitive binding assay to establish a structure–activity relationship. To this end, two sets of compounds with a molecular cut‐off of 500 Da were chosen: a first set of 342 compounds contained derivatives of Tolcapone, while a second set of 3222 compounds comprised catechols covering a larger chemical space. […] Tests were run in a 384‐well‐plate format at three concentrations (first set at 125, 32, and 4 µM, second set at 100, 25, and 3 µM) in presence of 10% DMSO and 250 µM 2‐mercaptoethanol to prevent interference by a potential unspecific reactivity of electron‐rich catechols as established earlier.^[ [30] ^]
The screening followed the same assay by Joachim et al.^[2] as described above. Compounds in DMSO (1 µL with the appropriate concentration) were plated using a robot into black 384-well microtiter plates (Greiner Bio-One, Germany, cat no 781900) by the Roche compound handling facility at four replicates per concentration and compound. A mixture of LecA, sulfo-Cy5-Gal and 2-mercaptoethanol in TBS/Ca (20 mM Tris, 147 mM NaCl, 2.6 mM KCl at pH 7.4 supplemented with 1 mM CaCl2) with DMSO was added at HIPS. Final concentrations in both screening rounds were the following: 5 µM LecA, 250 µM 2-mercaptoethanol, 10 nM sulfo-Cy5-Gal and 10% DMSO. Final concentrations of the 342 compounds of the first screening round were 125 µM, 32 µM and 4 µM. The 3222 compounds of the second screening round were tested at final concentrations of 100 µM, 25 µM and 3 µM. The plate was sealed (EASYseal, Greiner Bio-One, cat no 676001), briefly centrifuged and incubated at room temperature in the dark under shaking conditions. Fluorescence intensities were measured after 1 h and 24 h using a PheraStar FS plate reader (BMG Labtech GmbH, Germany) with spectral filters for excitation at 590 nm and emission at 675 nm and polarization was calculated after blank values of 5 µM LecA in TBS/Ca buffer with 250 µM 2-mercaptoethanol and 10% DMSO were subtracted from the test compounds. The data were analysed using the MARS Data Analysis software. […] All stated values are the average including the standard deviation based on three replicates for 100 µM and four replicates in the case of compounds at 125 µM.

[3] = IC50, extended dose-response analysis, 20% DMSO, no 2-mercaptoethanol, three experiments
[4] = read-out: Activity [%] (% inhibition relative to 500 µM pNPGal)
[5] = LecA inhibition, competitive binding assay (FP), tested up to 1.5 mM, n ≥ 2
[6] = IC50 in presence of 0.01% Triton X-100, FP assay, 0.01% Triton X-100, one replicate
[7] = IC50 in presence of 0.057% Triton X-100, FP assay, 0.057% Triton X-100, one replicate

T1 sequence (Q05097 whole entry): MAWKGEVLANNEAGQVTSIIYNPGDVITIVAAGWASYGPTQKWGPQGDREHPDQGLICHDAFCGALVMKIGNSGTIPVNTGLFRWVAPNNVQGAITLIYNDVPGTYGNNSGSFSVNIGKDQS

Row | Compound | IC50 (LecA [1]; [3]) | also measured
1 | O=[N+]([O-])c1cc(-c2cn3ncsc3n2)cc(O)c1O [RO0199733] | > 1500 µM | –
2 | CC(=O)c1cc(O)c(O)c([N+](=O)[O-])c1 [compound 19] | – | inhibition at 100 µM (LecA [2]; [4]): 31.5 ± 3.8%
3 | CCCCOC(=O)c1cccc(C(=O)c2cc(O)c(O)c([N+](=O)[O-])c2)c1 [RO0626778] | 117 µM | –
4 | COc1cc(C(=O)c2ccc(C)cc2)cc([N+](=O)[O-])c1OC [compound 5] | – | Activity [%] (% inhibition relative to 500 µM pNPGal) (LecA [2]; compound 125 µM (marked *), 10% DMSO, 250 µM 2-mercaptoethanol, four replicates): complete lack of activity; inhibition at 125 µM (LecA [2]; [4]): -5.3 ± 7.6%
5 | O=C(c1cc(O)c(O)c([N+](=O)[O-])c1)N1CCCCC1 [compound 25] | – | inhibition at 100 µM (LecA [2]; [4]): 5 ± 11.8%
6 | CC(=O)C(=Cc1cc(O)c(O)c([N+](=O)[O-])c1)C(C)=O [compound 1, Nitecapone, reference compound] | – | IC50 (LecA [1]; [5]): no inhibition; IC50 (LecA [1]; LecA inhibition, competitive binding assay (FP), tested up to 1.5 mM, n ≥ 2, listed as Nitecapone): inactive
7 | O=C(c1cc(O)c(O)c([N+](=O)[O-])c1)c1ccnc2ccccc12 [RO0405919] | 174 µM | –
8 | O=C(NCC1CC1)c1cccc(C(=O)c2cc(O)c(O)c([N+](=O)[O-])c2)c1 [RO0621004] | 363 µM | –
9 | CC(C)OC(=O)c1cccc(C(=O)c2cc(O)c(O)c([N+](=O)[O-])c2)c1 [RO0621109] | 156 µM | –
10 | O=C(NCc1ccccc1)c1cccc(C(=O)c2cc(O)c(O)c([N+](=O)[O-])c2)c1 [RO0626786] | 356 µM | –
11 | CC(C)c1ccc(C(=O)c2cc(O)c(O)c([N+](=O)[O-])c2)cc1 [RO0615928] | 129 µM | –
12 | Cc1ccc(C(=O)c2cc(O)c(O)c(S(=O)(=O)C(F)(F)F)c2)cc1 [RO0616411] | 338 µM | –
13 | O=C(c1ccncc1)c1cc(O)c(O)c([N+](=O)[O-])c1 [RO0403499] | 597 µM | –
14 | C=CCOC(=O)c1cccc(C(=O)c2cc(O)c(O)c([N+](=O)[O-])c2)c1 [RO0620810] | 139 µM | –
15 | O=C(C(=O)c1cc(O)c(O)c([N+](=O)[O-])c1)c1ccccc1 [RO0621161] | 153 µM | –
16 | O=C(c1cc(O)c(O)c([N+](=O)[O-])c1)c1ccccc1Cl [RO0413301] | 108 µM | –
17 | Cc1ccccc1C(=O)c1cc(O)c(O)c([N+](=O)[O-])c1 [RO0412734] | 116 µM | –
18 | O=C(c1ccc(F)cc1)c1cc(O)c(O)c([N+](=O)[O-])c1 [RO0407028] | 370 µM | –
19 | COC(=O)c1ccc(C(=O)c2cc(O)c(O)c([N+](=O)[O-])c2)cc1 [RO0621265] | 330 µM | –
20 | COCCOCc1ccc(C(=O)c2cc(O)c(O)c([N+](=O)[O-])c2)cc1 [RO0624122] | 289 µM | –
21 | O=C(c1cc(O)c(O)c([N+](=O)[O-])c1)c1ccccc1C(F)(F)F [RO0413162] | 128 µM | –
22 | CC(O)CCOC(=O)c1cccc(C(=O)c2cc(O)c(O)c([N+](=O)[O-])c2)c1 (stereo not shown) [RO0621239] | 192 µM | –
23 | COC(=O)c1cccc(C(=O)c2cc(O)c(O)c([N+](=O)[O-])c2)c1 [RO0620808] | 279 µM | –
24 | Cc1c(Cl)c(C)[n+]([O-])c(Cl)c1-c1noc(-c2cc(O)c(O)c([N+](=O)[O-])c2)n1 [compound 3, Opicapone, reference compound] | – | IC50 (LecA [1]; IC50, LecA inhibition, competitive binding assay (FP), tested up to 1.5 mM, n ≥ 2): 842 ± 134 µM
25 | Cc1c(C(=O)c2cc(O)c(O)c([N+](=O)[O-])c2)[nH]c2ccccc12 [RO0403335] | 434 µM | –

Row | Compound | IC50 (LecA [1]; [3]) | also measured
26 | CCCCCOC(=O)c1cccc(C(=O)c2cc(O)c(O)c([N+](=O)[O-])c2)c1 [compound 34] | 63 µM | IC50 (LecA [1]; [6]): 88 µM; IC50 (LecA [1]; [7]): 61 µM
27 | CCCNC(=O)c1ccc(C(=O)c2cc(O)c(O)c([N+](=O)[O-])c2)cc1 [RO0620570] | 347 µM | –
28 | O=C(OCc1ccccc1)c1ccc(C(=O)c2cc(O)c(O)c([N+](=O)[O-])c2)cc1 [compound 31] | 47 µM | IC50 (LecA [1]; [6]): 17 µM; IC50 (LecA [1]; [7]): 16 µM
29 | Cc1c(C(=O)c2cc(O)c(O)c([N+](=O)[O-])c2)[nH]c2ccc(Br)cc12 [compound 30] | 43 µM | IC50 (LecA [1]; [6]): 59 µM
30 | N#Cc1ccccc1C(=O)c1cc(O)c(O)c([N+](=O)[O-])c1 [RO0413268] | 214 µM | –
31 | CCCNC(=O)c1cccc(C(=O)c2cc(O)c(O)c([N+](=O)[O-])c2)c1 [RO0621005] | 422 µM | –
32 | C=CCOC(=O)c1ccc(C(=O)c2cc(O)c(O)c([N+](=O)[O-])c2)cc1 [compound 32] | 56 µM | IC50 (LecA [1]; [6]): 49 µM; IC50 (LecA [1]; [7]): 50 µM
33 | CCN(CC)C(=O)c1cccc(C(=O)c2cc(O)c(O)c([N+](=O)[O-])c2)c1 [RO0621115] | 229 µM | –
34 | Cc1ccc(C(=O)C(=O)c2cc(O)c(O)c([N+](=O)[O-])c2)cc1 [RO0619291] | 128 µM | –
35 | CCCN(CCC)C(=O)c1cccc(C(=O)c2cc(O)c(O)c([N+](=O)[O-])c2)c1 [RO0621116] | 173 µM | –
36 | CCCCCOC(=O)c1ccc(C(=O)c2cc(O)c(O)c([N+](=O)[O-])c2)cc1 [compound 35] | 72 µM | IC50 (LecA [1]; [7]): 66 µM
37 | CCOC(=O)c1cccc(C(=O)c2cc(O)c(O)c([N+](=O)[O-])c2)c1 [RO0620809] | 244 µM | –
38 | Cc1ccc(C(=O)c2ccc(O)c(O)c2[N+](=O)[O-])cc1 [RO0614977] | 154 µM | –
39 | CC(C)(C)c1ccc(C(=O)c2cc(O)c(O)c([N+](=O)[O-])c2)cc1 [RO0615662] | 144 µM | –
40 | CCN(CC)C(=O)c1ccc(C(=O)c2cc(O)c(O)c([N+](=O)[O-])c2)cc1 [RO0620573] | 438 µM | –
41 | COC(=O)/C=C/c1cccc(C(=O)c2cc(O)c(O)c([N+](=O)[O-])c2)c1 [RO0619973] | 258 µM | –
42 | O=C(c1cccc(F)c1)c1cc(O)c(O)c([N+](=O)[O-])c1 [RO0412713] | 675 µM | –
43 | O=C(c1cccc(CO)c1)c1cc(O)c(O)c([N+](=O)[O-])c1 [RO0623430] | 446 µM | –
44 | CC(C)(C)COC(=O)c1cccc(C(=O)c2cc(O)c(O)c([N+](=O)[O-])c2)c1 [RO0626777] | 206 µM | –
45 | O=C(NC1CCCCC1)c1cccc(C(=O)c2cc(O)c(O)c([N+](=O)[O-])c2)c1 [RO0626783] | 430 µM | –
46 | O=C(OCCC(O)C(F)(F)F)c1cccc(C(=O)c2cc(O)c(O)c([N+](=O)[O-])c2)c1 (stereo not shown) [RO0622624] | 135 µM | –
47 | CCCCNC(=O)c1cccc(C(=O)c2cc(O)c(O)c([N+](=O)[O-])c2)c1 [RO0621006] | 283 µM | –
48 | CCCN(CCC)C(=O)c1c(Br)cc(O)c(O)c1[N+](=O)[O-] [RO0627603] | 285 µM | –
49 | O=C(c1cc(O)c(O)c([N+](=O)[O-])c1)c1cncc2ccccc12 [RO0408176] | 449 µM | –
50 | CCN(CC)C(=O)/C(C#N)=C/c1cc(O)c(O)c([N+](=O)[O-])c1 [compound 2, Entacapone, reference compound] | – | IC50 (LecA [1]; [5]): no inhibition; IC50 (LecA [1]; LecA inhibition, competitive binding assay (FP), tested up to 1.5 mM, n ≥ 2, listed as Entacapone): inactive
